The record followed here is publication PMC1082716, “Blockade of chemokine-induced signalling inhibits CCR5-dependent HIV infection in vitro without blocking gp120/CCR5 interaction” (Retrovirology, 2005).

“Also recorded” adds a separate entry of the source.

One experiment relates to CCR5. Nature of the experiment: Specific binding of biotinylated gp120:V3(BaL) peptide to THP-1 cells. Particulars: 100 μM biotinylated gp120:V3(BaL); various concentrations of Peptide 3; 10^6 cells in 100 μl, 4°C; non-specific binding (10 mM unlabelled peptide) subtracted. The protocol: The binding of gp120 to chemokine receptors is likely to involve sequences in the V3 loop of gp120 [28, 20]. We therefore synthesised peptide sequences from the V3 loop of the M-tropic BaL strain and the T-tropic IIIb strain and analysed the binding of these biotinylated peptides to the THP-1 and Jurkat cells. Specific (competable) binding of gp120:V3(BaL) to THP-1 cells was detected at 100 μM (Fig 1a). In contrast, specific binding of gp120:V3(BaL) to Jurkat cells was not detected even at concentrations up to 500 μM (Fig 1a). […]
Figure 1 Specific binding of gp120:V3 loop peptides to THP-1 and Jurkat cells. […] Specific binding is expressed as the absorbance in the absence of unlabelled peptide minus the absorbance in the presence of competitor (b) Binding of gp120:V3(IIIb)-biotin under the same conditions as in (a). […]
Cells (either Jurkat T-cells or THP-1 cells) were grown in RPMI 1640 medium supplemented with 10% fetal calf serum, 2 mM glutamine, 20 μM β-mercaptoethanol, 100 U/ml penicillin and 100 μg/ml streptomycin and maintained between 2 × 10^5 and 1 × 10^6 cells/ml. […] The plate was spun (3,000 × g; 3 mins) and 200 μl of the coloured product was transferred to an empty 96-well ELISA plate and the absorbance at 450 nm determined.

Another experiment concerns HIV strain MN. As to the kind of experiment: HIV (MN) infection of THP-1 cells, p24gag immunofluorescence. It counts as cell-based, HIV-1. To be noted: Peptide 3 100 μM. The procedure: However, it was possible to assess HIV infectivity of THP-1 cells using high sensitivity immunofluorescent detection of p24^gag. THP-1 cells were differentiated with hydrocortisone and PMA, then treated with TNFα, resulting in adherent monolayers on glass chamber slides. The THP-1 cells were then treated with either Peptide 3 (100 μM), MIP1α (100 ng/ml) or SDF1α (100 ng/ml) as for the Jurkat cells. THP-1 cells were infected with HIV strain MN at a concentration previously validated to produce easily detectable infection and grown for 72 h prior to fixation and staining for p24^gag. In contrast to the findings with HIV strain IIIb infection of Jurkat T cells, Peptide 3 inhibited infection of THP-1 cells by more than 80% (Fig 3c), very similar to the effect of MIP1α.
THP-1 cells were differentiated prior to infection with hydrocortisone and PMA in 8-well chamber slides. Sixteen hours prior to infection, TNFα was added (100 ng/ml). Twelve hours later, the medium was aspirated and replaced with fresh medium containing the test peptides or chemokines as appropriate. After a further four hours, virus from the frozen stocks was adeed to the cells, which were the processed for immunofluoresence between 28 h and 72 h after infection.
Jurkat cells following HIV infection were attached to 8-well chamber slides (Becton-Dickinson) by spinning the slides using a plate rotor in a Labofuge centrifuge (Heraeus) at 3,000 × g for 5 minutes. Attached Jurkat cells or THP-1 cells were then fixed by dipping the slides into ice-cold 70% ethanol for 90 seconds. Non-specific binding was blocked by incubation with 3% fatty acid-free BSA in TBS for 1 hour at room temprature. Cells were incubated with the mouse monoclonal anti-HIV-1 p24^gag antibody EH12E1 (ref 38;AIDS Reagent Program, NIBSC) at 10 μg/ml in 3% BSA in TBS at room temperature overnight. Unbound antibody was removed with 3 × 3 min washes in PBS, and bound antibody was then fixed to the slide by incubation with 3.8% phosphate buffered formalin pH7.2 for 10 mins at room temperature, followed by 3 further 3 min washes in PBS. Bound antibody was visualised using donkey anti-mouse IgG FITC conjugate (715-095-150; Jackson Immunoresearch) at 30 μg/ml in 3% BSA/TBS + 1 ng/ml Hoescht 33342 for 6 hours at room temperature. Twelve fields of view (100× magnification) were captured from each well of the chamber slide using an Olympus Provis AX electronic microscope connected to a Power Macintosh 8500, running OpenLab image analysis software (Improvision), under both FITC illumination conditions (NIBA filter block; λex = 470–490 nm, dichroic mirror = 505 nm, λem = 515–550 nm) and UV illumination conditions (Chroma 31000; λex = 340–380 nm, dichroic mirror = 400 nm, λem = 435–485 nm). Images were acquired with a Hamamatsu C4742-05 monochrome digital camera with 10-bit depth in a 1280-1024 pixel field connected to a DIG Snapper frame grabber. The exposure time, amplifier gain and offset values were controlled by the OpenLab software and were held constant throughout the experiment. A background (an image captured without a slide under the objective) was digitally subtracted from every image. A threshold was then applied to each image which was the lowest threhold that detected <1% of the pixels of an image of uninfected cells stained under identical conditions. The number of objects exceeding this threshold in each field of view were counted. […]

On to EICADPKQKWVQ [Peptide 3], for which the “Effect on gp120 binding to CCR5 (gp120:V3(BaL) to THP-1 cells)” value with CCR5 was “no effect; also recorded: unaffected”. The “Effect on HIV infection of THP-1 cells (in words)” value in the experiment on HIV strain MN (HIV strain MN, MIP1α 100 ng/ml, SDF1α 100 ng/ml, 72 h, p24gag immunofluorescence) is recorded as “powerfully inhibited; also recorded: blocked”. Moreover, in the experiment with HIV strain MN (HIV strain MN, differentiated THP-1 (hydrocortisone, PMA, TNFα), grown for 72 h prior to fixation, 12 fields of view), the “Inhibition of infection of THP-1 cells (p24gag)” value is “more than 80%”. For the same sequence, in the experiment on HIV strain MN (assayed by immunofluoresence staining, HIV MN, 72 h, p24gag), the “Inhibition of CCR5 mediated HIV infection of THP-1 cells” value came out at 83 ± 7%.
